# Test results as given in patent US4889941A, “Synthetic flavonoids as inhibitors of leukotrienes and 5-lipoxygenase” (Fisons Corporation, priority 1987, dated 1989).
# Where a name gives a salt, the structure may show the parent alone.
# Key:
# [1] = system: edema in a rat anaphylaxis test; experiment: Rat anaphylaxis test (paw edema after bovine serum albumin challenge); format: in vivo; conditions: for activity in the rat anaphylaxis test: administered as a suspension
# Procedure: Groups of 15-20 rats are intraperitoneally sensitized with 500 μg of bovine serum albumin-absorbed alum admixed with 2×10^10 killed Bordetella pertussis vaccine organisms. Fourteen days later, the paw volume is measured using a mercury plethysmometer. Immediately thereafter, the test compound suspended in about 1 ml of 1% Clearjel ("Instant Clearjel", a food grade pregelatinized starch from National Starch and Chemical Corporation, New York, N.Y.) at 100 mg/kg is administered ip and, one hour later, the right hind paw is injected subcutaneously with 100 μg of bovine serum albumin dissolved in 0.1 ml of saline. (In controls, no test compound is suspended in the Clearjel.) The paw volume is remeasured 90 minutes post antigenic challenge to determine the volume increase (Δ V) since the first measurement. The percent inhibition of edema is [formula] The effect of theophylline (90 mg/kg, po) is tested as a positive control.
# [2] = Solubility in the balanced salts solution of the tissue bath; format: physicochemical; conditions: balanced salts solution of the LTC4 ilial assay
# leukotriene C4 (LTC4) = experiment: Inhibition of LTC4-induced guinea pig ilial contractions; format: cell-based; conditions: Cavia porcellus, LTC4 6 nanomolar, read-out: percent inhibition of LTC4-induced contraction
# Procedure: Test for Inhibition of LTC4 -Induced Guinea Pig Ilial Contractions
# The evaluation of potential anti-allergic compounds for antagonism of the in vitro effects of leukotriene C4 (LTC4) is conducted according to the following procedure. Guinea pig ilial strips are obtained from recently killed animals and hung in isolated tissue baths comprising a balanced solution of salts such as Krebs' solution. After allowing for one hour equilibration of the tissue in the bath, the gram tension (G.T.) on one tissue is arbitrarily set at one. LTC4 (6 nanomolar concentration) is then added to the tissue bath. This induces a long, sustained contraction of the tissue that is measured on the strip chart recorder (the G.T. increases to about 2). After the LTC4 -induced contraction has plateaued and remains stable, increasing amounts of the test compound are added to the bath. If the compound is effective, a decrease in the G.T. (Δ G.T.) from the LTC4 -induced value is seen (e.g., from 2 to 1.5). The percent inhibition at each concentration is calculated according to the formula: [formula] Four replicate tissues are run.
# 5-lipoxygenase = biological target: T1, 5-lipoxygenase (Homo sapiens, UniProt P09917); experiment: Inhibition of 5-lipoxygenase (5-HETE formation from arachidonic acid, HPLC); format: biochemical; conditions: arachidonic acid 1 mg/ml, pH 7.4, 6 minutes at 30° C.
# T1 sequence (P09917 1-674): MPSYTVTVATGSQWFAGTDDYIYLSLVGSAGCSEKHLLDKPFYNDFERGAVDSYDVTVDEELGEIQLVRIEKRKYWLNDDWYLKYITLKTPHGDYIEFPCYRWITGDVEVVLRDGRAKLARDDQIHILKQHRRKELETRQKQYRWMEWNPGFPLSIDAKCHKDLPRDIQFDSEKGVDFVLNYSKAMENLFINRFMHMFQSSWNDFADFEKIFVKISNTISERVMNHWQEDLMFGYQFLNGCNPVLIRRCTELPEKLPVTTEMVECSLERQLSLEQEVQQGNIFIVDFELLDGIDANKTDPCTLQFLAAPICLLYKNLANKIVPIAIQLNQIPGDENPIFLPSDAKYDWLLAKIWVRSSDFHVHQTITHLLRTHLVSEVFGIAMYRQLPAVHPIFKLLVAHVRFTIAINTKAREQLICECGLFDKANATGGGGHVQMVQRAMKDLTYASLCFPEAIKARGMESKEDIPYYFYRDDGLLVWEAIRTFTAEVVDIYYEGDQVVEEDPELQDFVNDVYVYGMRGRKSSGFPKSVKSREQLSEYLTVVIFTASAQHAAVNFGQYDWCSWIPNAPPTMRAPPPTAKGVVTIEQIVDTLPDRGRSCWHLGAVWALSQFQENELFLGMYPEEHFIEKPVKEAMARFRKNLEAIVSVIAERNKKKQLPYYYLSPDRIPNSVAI
# Procedure: Test for Inhibition of 5-Lipoxygenase
# This test is based on the procedure of Arai et al., J. Med. Chem., Vol. 26, 72 (1983).
# Arachidonic acid in the presence of the enzyme 5-lipoxygenase is converted to 5-hydroxy-eicosatetraenoic acid (5-HETE) through a 2-step process. To assess the activity of a test compound on 5-lipoxygenase activity, a specific concentration of the test compound is added to 1 mg/ml of arachidonic acid in the presence of the appropriate amount of 5-lipoxygenase in a solution of potassium phosphate buffer containing 1 mM CaCl2 at pH 7.4. The reaction is carried out for 6 minutes at 30° C. in a total volume of 500 μl. The reaction is stopped by addition of lM citric acid. The 5-HETE is extracted and quantitated using high performance liquid chromatography. The percent activity is calculated as follows: [formula]
smiles,measurement,setting,value
"O=c1c(-c2ccccc2)c(-c2ccccc2)oc2cc(OCC(O)CNc3ccccc3)ccc12 (stereo not shown) [Example 19, 3-Phenyl-7-(3-anilino-2-hydroxypropoxy)flavone]",activity in the Rat Anaphylaxis test,[1]; as hydrochloric acid salt,inactive
same,activity in the Rat Anaphylaxis test,[1]; free base form,active
"O=c1cc(-c2ccccc2)oc2cc(OCC(O)CN3CCN(c4ccccc4)CC3)ccc12 (stereo not shown) [Example 12, 7-[3-(N-phenylpiperazinyl)-2-hydroxypropoxy]flavone]",solubility in the balanced salts solution,[2],insoluble
same,activity in the rat anaphylaxis test,[1],active
"O=c1c(-c2ccccc2)c(-c2ccccc2)oc2cc(OCC(O)CNCCc3ccccc3)ccc12 (stereo not shown) [Example 18, 3-Phenyl-7-(3-phenethylamino-2-hydroxypropoxy)flavone]",solubility in the balanced salts solution,[2],insoluble
same,activity in the rat anaphylaxis test,[1],active
"COc1ccc(CCNCC(O)COc2ccc3c(=O)cc(-c4ccccc4)oc3c2)cc1OC (stereo not shown) [Example 1, 7-[3-[(3,4-dimethoxyphenethyl)amino]-2-hydroxypropoxy]flavone Maleate]",inhibition at 10 µM,leukotriene C4 (LTC4); final tissue bath concentration 1×10^-5 M,94%
same,inhibition at 1 µM,leukotriene C4 (LTC4); final tissue bath concentration 1×10^-6 M,52.3%
same,inhibition at 5 µM,leukotriene C4 (LTC4); final tissue bath concentration 5×10^-6 M,89.8%
"O=c1cc(-c2ccccc2)oc2cc(OCC(O)CNCC(O)COc3ccccc3)ccc12 (stereo not shown) [Example 11, 7-[3-[3-phenoxy-2-(hydroxypropyl)amino]-2-hydroxypropoxy]flavone Hydrochloride]",solubility in the balanced salts solution,[2],insoluble
same,activity in the rat anaphylaxis test,[1],active
"Br.O=c1cc(-c2ccccc2)oc2cc(OCC(O)CNCCc3ccc(O)c(O)c3)ccc12 (stereo not shown) [Example 14, 7-[3-[(3,4-Dihydroxyphenethyl)amino]-2-hydroxypropoxy]flavone Hydrobromide]",percent inhibition of edema,"[1]; rat, 100 mg/kg ip in 1% Clearjel, paw volume 90 minutes post antigenic challenge",63%
same,IC50,5-lipoxygenase,~90 nM
